Measurements from PMC11345841, “Exploring 2-Sulfonylpyrimidine Warheads as Acrylamide Surrogates for Targeted Covalent Inhibition: A BTK Story” (Journal of Medicinal Chemistry, 2024).
Read-outs that look alike come from different tables or passages of the source. One block for each molecule: values may come before it.

What was measured:
Experiment in all cases: KINOMEscan ScanTK
Type in all cases: binding
TYRO3 = biological target: T1, TYRO3 (Homo sapiens, UniProt Q06418)
T1 construct: purchased Eurofins DiscoverX KINOMEscan (scanTK)
T1 sequence (Q06418 41-890): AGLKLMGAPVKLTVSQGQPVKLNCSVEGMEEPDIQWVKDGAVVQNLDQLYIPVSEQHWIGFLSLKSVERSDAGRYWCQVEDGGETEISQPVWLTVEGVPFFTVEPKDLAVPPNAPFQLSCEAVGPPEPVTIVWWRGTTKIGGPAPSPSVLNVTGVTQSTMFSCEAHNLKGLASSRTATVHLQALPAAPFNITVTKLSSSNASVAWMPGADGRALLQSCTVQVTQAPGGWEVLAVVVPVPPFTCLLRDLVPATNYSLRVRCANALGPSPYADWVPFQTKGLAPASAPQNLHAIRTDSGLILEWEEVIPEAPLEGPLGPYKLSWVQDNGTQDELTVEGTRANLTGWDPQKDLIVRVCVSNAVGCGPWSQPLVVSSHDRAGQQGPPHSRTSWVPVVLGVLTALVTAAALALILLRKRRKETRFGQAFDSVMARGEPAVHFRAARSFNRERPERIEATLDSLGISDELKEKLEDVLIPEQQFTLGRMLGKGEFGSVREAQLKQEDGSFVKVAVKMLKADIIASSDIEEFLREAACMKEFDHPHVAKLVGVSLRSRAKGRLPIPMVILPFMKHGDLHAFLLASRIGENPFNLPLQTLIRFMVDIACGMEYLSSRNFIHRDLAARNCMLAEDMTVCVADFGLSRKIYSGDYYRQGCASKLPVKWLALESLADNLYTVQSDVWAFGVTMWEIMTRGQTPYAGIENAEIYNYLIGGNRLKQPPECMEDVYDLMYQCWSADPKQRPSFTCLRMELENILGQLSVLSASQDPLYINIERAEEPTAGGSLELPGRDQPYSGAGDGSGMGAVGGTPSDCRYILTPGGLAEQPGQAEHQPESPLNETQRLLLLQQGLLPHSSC

FGFR3(G697C) = biological target: T2, FGFR3(G697C) (Homo sapiens, UniProt P22607, G697C)
T2 construct: purchased Eurofins DiscoverX KINOMEscan (scanTK)

ALK(L1196M) = biological target: T3, ALK(L1196M) (Homo sapiens, UniProt Q9UM73, L1196M)
T3 construct: purchased Eurofins DiscoverX KINOMEscan (scanTK)

[1] = biological target: T4, ABL1(Y253F)-phosphorylated (Homo sapiens, UniProt P00519, Y253F)
T4 construct: purchased Eurofins DiscoverX KINOMEscan (scanTK)

FLT1 = biological target: T5, FLT1 (Homo sapiens, UniProt P17948)
T5 construct: purchased Eurofins DiscoverX KINOMEscan (scanTK)

RET(V804L) = biological target: T6, RET(V804L) (Homo sapiens, UniProt P07949, V804L)
T6 construct: purchased Eurofins DiscoverX KINOMEscan (scanTK)

ERBB3 = biological target: T7, ERBB3 (Homo sapiens, UniProt P21860); details: ERBB3
T7 construct: purchased Eurofins DiscoverX KINOMEscan (scanTK)

FYN = biological target: T8, FYN (Homo sapiens, UniProt P06241)
T8 construct: purchased Eurofins DiscoverX KINOMEscan (scanTK)

[2] = biological target: T9, ABL1(F317I)-nonphosphorylated (Homo sapiens, UniProt P00519, F317I)
T9 construct: purchased Eurofins DiscoverX KINOMEscan (scanTK)

SRMS = biological target: T10, SRMS (Homo sapiens, UniProt Q9H3Y6); details: SRMS
T10 construct: purchased Eurofins DiscoverX KINOMEscan (scanTK)

MET = biological target: T11, MET (Homo sapiens, UniProt P08581)
T11 construct: purchased Eurofins DiscoverX KINOMEscan (scanTK)

ITK = biological target: T12, ITK (Homo sapiens, UniProt Q08881); details: for difference in %Control versus compound Ib at 1 µM / remaining binding at 1 µM: ITK; for inhibition at 1 µM: ScanTK
T12 construct: purchased Eurofins DiscoverX KINOMEscan (scanTK)
T12 sequence (Q08881 1-620): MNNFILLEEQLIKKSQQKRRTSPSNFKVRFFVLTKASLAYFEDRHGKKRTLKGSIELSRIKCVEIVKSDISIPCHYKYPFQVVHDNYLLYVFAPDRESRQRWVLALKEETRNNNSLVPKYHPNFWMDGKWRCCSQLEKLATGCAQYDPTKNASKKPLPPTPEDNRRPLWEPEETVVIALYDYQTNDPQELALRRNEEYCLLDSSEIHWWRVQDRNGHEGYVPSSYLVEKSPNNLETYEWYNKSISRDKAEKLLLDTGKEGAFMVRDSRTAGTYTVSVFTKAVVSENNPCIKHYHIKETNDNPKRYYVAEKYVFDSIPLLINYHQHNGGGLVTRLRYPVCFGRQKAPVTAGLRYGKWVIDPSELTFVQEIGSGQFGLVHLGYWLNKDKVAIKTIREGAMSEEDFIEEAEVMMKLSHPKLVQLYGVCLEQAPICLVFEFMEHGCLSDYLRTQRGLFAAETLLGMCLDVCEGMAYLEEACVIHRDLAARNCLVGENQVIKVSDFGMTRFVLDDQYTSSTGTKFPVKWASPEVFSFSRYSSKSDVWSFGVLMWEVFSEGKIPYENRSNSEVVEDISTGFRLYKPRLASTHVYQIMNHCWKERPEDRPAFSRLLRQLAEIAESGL

KIT-autoinhibited = biological target: T13, KIT-autoinhibited (Homo sapiens, UniProt P10721)
T13 construct: purchased Eurofins DiscoverX KINOMEscan (scanTK)

FGFR1 = biological target: T14, FGFR1 (Homo sapiens, UniProt P11362)
T14 construct: purchased Eurofins DiscoverX KINOMEscan (scanTK)

INSR = biological target: T15, INSR (Homo sapiens, UniProt P06213)
T15 construct: purchased Eurofins DiscoverX KINOMEscan (scanTK)

TIE1 = biological target: T16, TIE1 (Homo sapiens, UniProt P35590)
T16 construct: purchased Eurofins DiscoverX KINOMEscan (scanTK)

FER = biological target: T17, FER (Homo sapiens, UniProt P16591)
T17 construct: purchased Eurofins DiscoverX KINOMEscan (scanTK)
T17 sequence (P16591 whole entry): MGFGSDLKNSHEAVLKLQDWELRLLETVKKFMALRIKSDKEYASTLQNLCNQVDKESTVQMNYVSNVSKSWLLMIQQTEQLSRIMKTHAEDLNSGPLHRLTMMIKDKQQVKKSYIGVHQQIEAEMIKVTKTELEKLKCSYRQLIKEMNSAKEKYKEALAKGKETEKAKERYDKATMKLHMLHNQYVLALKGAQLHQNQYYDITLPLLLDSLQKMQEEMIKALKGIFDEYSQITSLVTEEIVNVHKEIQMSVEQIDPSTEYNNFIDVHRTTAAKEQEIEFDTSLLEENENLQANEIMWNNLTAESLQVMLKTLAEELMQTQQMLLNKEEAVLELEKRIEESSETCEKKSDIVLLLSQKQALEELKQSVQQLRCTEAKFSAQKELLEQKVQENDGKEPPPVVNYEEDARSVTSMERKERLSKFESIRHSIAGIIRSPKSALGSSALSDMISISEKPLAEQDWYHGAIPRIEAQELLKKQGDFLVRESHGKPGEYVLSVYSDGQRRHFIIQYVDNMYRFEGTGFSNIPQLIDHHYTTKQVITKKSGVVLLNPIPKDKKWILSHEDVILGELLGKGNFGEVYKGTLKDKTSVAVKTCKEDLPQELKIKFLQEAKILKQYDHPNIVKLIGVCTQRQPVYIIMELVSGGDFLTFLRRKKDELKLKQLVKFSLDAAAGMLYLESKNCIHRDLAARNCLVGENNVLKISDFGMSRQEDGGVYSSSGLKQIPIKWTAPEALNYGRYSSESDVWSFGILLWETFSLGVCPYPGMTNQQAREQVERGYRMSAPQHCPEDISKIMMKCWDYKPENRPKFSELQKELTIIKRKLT

T15 sequence (P06213 28-1382): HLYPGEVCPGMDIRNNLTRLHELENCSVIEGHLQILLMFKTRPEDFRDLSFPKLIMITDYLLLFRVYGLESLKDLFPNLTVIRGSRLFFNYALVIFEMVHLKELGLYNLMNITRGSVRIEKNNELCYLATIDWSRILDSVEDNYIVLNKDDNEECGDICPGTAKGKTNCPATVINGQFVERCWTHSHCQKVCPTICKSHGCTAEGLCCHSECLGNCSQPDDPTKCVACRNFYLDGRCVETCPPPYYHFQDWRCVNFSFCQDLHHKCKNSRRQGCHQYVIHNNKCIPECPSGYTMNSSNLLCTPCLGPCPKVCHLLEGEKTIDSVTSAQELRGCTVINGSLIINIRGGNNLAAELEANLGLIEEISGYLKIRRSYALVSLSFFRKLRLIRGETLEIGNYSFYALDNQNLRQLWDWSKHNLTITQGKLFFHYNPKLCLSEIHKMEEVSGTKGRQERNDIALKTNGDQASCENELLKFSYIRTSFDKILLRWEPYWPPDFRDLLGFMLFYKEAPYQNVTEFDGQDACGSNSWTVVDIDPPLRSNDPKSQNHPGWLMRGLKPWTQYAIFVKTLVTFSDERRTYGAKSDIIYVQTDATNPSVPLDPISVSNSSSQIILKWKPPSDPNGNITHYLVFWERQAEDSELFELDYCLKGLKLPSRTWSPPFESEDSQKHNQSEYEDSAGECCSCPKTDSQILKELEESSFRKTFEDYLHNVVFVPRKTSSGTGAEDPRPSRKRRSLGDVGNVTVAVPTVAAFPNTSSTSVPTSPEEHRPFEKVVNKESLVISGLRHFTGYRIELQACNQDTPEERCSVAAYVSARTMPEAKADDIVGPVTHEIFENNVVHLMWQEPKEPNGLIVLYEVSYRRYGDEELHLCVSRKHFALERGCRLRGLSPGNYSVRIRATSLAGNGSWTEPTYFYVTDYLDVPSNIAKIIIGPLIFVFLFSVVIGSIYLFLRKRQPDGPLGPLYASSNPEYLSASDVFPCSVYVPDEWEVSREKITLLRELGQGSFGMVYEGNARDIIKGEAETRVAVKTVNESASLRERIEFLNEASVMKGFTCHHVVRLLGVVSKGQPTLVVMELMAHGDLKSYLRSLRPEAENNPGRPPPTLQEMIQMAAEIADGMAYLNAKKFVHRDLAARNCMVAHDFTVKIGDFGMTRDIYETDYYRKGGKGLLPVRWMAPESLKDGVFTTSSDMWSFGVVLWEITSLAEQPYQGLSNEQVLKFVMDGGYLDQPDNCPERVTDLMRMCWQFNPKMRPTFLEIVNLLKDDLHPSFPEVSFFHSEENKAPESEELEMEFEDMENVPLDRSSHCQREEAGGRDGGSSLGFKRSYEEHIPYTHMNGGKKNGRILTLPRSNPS
T7 sequence (P21860 20-1342): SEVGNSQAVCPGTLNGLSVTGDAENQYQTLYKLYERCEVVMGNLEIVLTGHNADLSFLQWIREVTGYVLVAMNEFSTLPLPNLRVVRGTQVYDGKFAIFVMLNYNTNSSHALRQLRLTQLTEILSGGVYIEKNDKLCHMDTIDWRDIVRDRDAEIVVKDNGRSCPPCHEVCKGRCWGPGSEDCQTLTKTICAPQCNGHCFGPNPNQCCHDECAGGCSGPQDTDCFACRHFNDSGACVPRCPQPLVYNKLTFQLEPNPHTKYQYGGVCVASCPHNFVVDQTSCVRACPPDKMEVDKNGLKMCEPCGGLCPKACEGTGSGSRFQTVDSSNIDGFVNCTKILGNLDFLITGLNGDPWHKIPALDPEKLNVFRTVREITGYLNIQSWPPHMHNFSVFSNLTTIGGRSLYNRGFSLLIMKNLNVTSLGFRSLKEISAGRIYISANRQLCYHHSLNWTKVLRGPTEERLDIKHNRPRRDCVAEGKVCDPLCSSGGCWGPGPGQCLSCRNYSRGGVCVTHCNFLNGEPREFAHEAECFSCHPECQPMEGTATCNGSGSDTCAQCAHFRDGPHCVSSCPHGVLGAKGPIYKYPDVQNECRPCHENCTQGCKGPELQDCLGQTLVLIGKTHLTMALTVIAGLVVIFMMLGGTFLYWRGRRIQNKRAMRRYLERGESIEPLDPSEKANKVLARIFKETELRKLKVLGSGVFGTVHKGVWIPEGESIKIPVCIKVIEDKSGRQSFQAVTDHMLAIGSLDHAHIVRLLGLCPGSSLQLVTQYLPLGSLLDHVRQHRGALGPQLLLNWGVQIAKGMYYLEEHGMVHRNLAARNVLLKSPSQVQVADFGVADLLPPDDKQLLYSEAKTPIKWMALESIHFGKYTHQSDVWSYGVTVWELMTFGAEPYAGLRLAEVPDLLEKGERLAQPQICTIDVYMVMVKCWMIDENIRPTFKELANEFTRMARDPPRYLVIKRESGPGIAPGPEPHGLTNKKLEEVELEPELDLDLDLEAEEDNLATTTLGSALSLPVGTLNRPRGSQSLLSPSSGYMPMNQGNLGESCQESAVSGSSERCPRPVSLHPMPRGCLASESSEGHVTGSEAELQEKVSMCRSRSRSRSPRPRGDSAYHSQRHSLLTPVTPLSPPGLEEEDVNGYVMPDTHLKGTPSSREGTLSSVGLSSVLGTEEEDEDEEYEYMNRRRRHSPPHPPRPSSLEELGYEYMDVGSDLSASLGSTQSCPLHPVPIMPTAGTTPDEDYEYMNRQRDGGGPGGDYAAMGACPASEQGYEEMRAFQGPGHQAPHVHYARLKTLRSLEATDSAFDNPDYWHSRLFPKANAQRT
T13 sequence (P10721 26-976): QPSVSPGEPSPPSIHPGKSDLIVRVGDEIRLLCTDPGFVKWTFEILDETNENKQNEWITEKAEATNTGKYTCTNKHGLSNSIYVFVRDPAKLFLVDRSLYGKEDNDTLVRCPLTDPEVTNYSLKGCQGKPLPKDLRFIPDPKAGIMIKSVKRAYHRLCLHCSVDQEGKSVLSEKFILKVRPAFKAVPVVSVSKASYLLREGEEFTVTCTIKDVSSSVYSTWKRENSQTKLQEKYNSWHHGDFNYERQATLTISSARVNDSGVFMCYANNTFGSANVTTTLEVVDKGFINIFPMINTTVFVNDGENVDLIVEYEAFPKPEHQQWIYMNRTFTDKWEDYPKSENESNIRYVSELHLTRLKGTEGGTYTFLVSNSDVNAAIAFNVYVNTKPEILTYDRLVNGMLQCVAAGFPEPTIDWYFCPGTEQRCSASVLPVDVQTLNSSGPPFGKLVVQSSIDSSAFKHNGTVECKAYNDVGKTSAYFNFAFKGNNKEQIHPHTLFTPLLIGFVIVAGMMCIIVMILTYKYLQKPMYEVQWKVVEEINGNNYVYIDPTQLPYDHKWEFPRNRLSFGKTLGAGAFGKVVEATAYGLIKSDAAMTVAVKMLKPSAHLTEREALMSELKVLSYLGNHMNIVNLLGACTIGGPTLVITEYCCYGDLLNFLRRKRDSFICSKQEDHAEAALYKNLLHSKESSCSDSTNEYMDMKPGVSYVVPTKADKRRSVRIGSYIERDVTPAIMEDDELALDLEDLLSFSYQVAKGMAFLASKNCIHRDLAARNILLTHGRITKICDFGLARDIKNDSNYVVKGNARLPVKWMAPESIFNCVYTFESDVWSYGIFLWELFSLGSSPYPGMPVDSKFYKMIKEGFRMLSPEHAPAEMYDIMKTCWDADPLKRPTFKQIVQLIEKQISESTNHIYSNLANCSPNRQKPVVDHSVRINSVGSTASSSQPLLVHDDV
T8 sequence (P06241 whole entry): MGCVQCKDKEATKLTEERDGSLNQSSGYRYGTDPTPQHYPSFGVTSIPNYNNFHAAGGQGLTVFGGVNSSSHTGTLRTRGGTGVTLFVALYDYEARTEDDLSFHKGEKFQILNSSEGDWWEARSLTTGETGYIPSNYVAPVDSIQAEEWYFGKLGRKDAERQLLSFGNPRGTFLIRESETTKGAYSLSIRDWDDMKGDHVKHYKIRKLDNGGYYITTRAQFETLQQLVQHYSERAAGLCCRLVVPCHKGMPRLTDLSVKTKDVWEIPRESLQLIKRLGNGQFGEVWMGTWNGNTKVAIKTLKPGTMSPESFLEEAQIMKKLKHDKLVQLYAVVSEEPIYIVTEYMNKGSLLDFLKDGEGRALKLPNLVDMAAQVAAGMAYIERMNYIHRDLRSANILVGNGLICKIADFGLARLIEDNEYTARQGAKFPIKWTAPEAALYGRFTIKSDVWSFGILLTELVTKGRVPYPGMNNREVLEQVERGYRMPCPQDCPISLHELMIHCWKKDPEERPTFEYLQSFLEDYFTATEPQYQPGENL

remaining binding at 1 µM (TYRO3; @1000nM, read-out: %Control): 40%
remaining binding at 1 µM (TYRO3; read-out: %Control @1000nM): 40%
difference in %Control versus compound Ib at 1 µM (FGFR3(G697C); @1000nM): 57%
remaining binding at 1 µM (FGFR3(G697C); @1000nM, read-out: %Control): 97%
remaining binding at 1 µM (FGFR3(G697C); read-out: %Control @1000nM): 97%
difference in % of control vs compound Ib at 1 µM (ALK(L1196M); @1000nM): -5%
remaining binding at 1 µM (ALK(L1196M); @1000nM, read-out: %Control): 95%
remaining binding at 1 µM (ALK(L1196M); read-out: %Control @1000nM): 95%
difference in %Control from compound Ib at 1 µM ([1]; @1000nM): 6%
remaining binding at 1 µM ([1]; @1000nM, read-out: %Control): 83%
remaining binding at 1 µM ([1]; read-out: %Control @1000nM): 83%
difference in %Control from compound Ib at 1 µM (FLT1; @1000nM): 21%
remaining binding at 1 µM (FLT1; @1000nM, read-out: %Control): 93%
remaining binding at 1 µM (FLT1; read-out: %Control @1000nM): 93%
remaining binding at 1 µM (RET(V804L); @1000nM, read-out: %Control): 89%
remaining binding at 1 µM (RET(V804L); read-out: %Control @1000nM): 89%
% of control difference from compound Ib at 1 µM (ERBB3; @1000nM): 0%
remaining binding at 1 µM (ERBB3; @1000nM, read-out: %Control): 0%
remaining binding at 1 µM (ERBB3; read-out: %Control @1000nM): 0%
difference in % of control versus compound Ib at 1 µM (FYN; @1000nM): 7.4%
remaining binding at 1 µM (FYN; @1000nM, read-out: %Control): 17%
remaining binding at 1 µM (FYN; read-out: %Control @1000nM): 17%
difference in %Control versus compound Ib at 1 µM ([2]; @1000nM): 29%
remaining binding at 1 µM ([2]; @1000nM, read-out: %Control): 81%
remaining binding at 1 µM ([2]; read-out: %Control @1000nM): 81%
remaining binding at 1 µM (SRMS; @1000nM, read-out: %Control): 16%
remaining binding at 1 µM (SRMS; read-out: %Control @1000nM): 16%
remaining binding at 1 µM (MET; @1000nM, read-out: %Control): 100%
remaining binding at 1 µM (MET; read-out: %Control @1000nM): 100%
difference in %Control versus compound Ib at 1 µM (ITK; @1000nM): 69%
remaining binding at 1 µM (ITK; @1000nM, read-out: %Control): 84%
remaining binding at 1 µM (ITK; read-out: %Control @1000nM): 84%
inhibition at 1 µM (ITK): 16%
remaining binding at 1 µM (KIT-autoinhibited; @1000nM, read-out: %Control): 100%
remaining binding at 1 µM (KIT-autoinhibited; read-out: %Control @1000nM): 100%
difference in %Control from compound Ib at 1 µM (FGFR1; @1000nM): 44%
remaining binding at 1 µM (FGFR1; @1000nM, read-out: %Control): 77%
remaining binding at 1 µM (FGFR1; read-out: %Control @1000nM): 77%
difference in %Control versus compound Ib at 1 µM (INSR; @1000nM): -5%
remaining binding at 1 µM (INSR; @1000nM, read-out: %Control): 95%
remaining binding at 1 µM (INSR; read-out: %Control @1000nM): 95%
remaining binding at 1 µM (TIE1; @1000nM, read-out: %Control): 89%
remaining binding at 1 µM (TIE1; read-out: %Control @1000nM): 89%
difference in %Control versus compound Ib at 1 µM (FER; @1000nM): 0%
remaining binding at 1 µM (FER; @1000nM, read-out: %Control): 100%
remaining binding at 1 µM (FER; read-out: %Control @1000nM): 100%
Compound: Cc1cnc(S(C)(=O)=O)nc1N1CCCC(n2nc(-c3ccc(Oc4ccccc4)cc3)c3c(N)ncnc32)C1 (centres unmarked) [Compound 8a, 1-(1-(5-Methyl-2-(methylsulfonyl)pyrimidin-4-yl)piperidin-3-yl)-3-(4-phenoxyphenyl)-1H-pyrazolo[3,4-d]pyrimidin-4-amine]

remaining binding at 1 µM (TYRO3; @1000nM, read-out: %Control): 33%
remaining binding at 1 µM (TYRO3; read-out: %Control @1000nM): 33%
difference in %Control versus compound Ib at 1 µM (FGFR3(G697C); @1000nM): 44%
remaining binding at 1 µM (FGFR3(G697C); @1000nM, read-out: %Control): 84%
remaining binding at 1 µM (FGFR3(G697C); read-out: %Control @1000nM): 84%
difference in % of control vs compound Ib at 1 µM (ALK(L1196M); @1000nM): -8%
remaining binding at 1 µM (ALK(L1196M); @1000nM, read-out: %Control): 92%
remaining binding at 1 µM (ALK(L1196M); read-out: %Control @1000nM): 92%
difference in %Control from compound Ib at 1 µM ([1]; @1000nM): 1%
remaining binding at 1 µM ([1]; @1000nM, read-out: %Control): 78%
remaining binding at 1 µM ([1]; read-out: %Control @1000nM): 78%
difference in %Control from compound Ib at 1 µM (FLT1; @1000nM): 26%
remaining binding at 1 µM (FLT1; @1000nM, read-out: %Control): 98%
remaining binding at 1 µM (FLT1; read-out: %Control @1000nM): 98%
remaining binding at 1 µM (RET(V804L); @1000nM, read-out: %Control): 90%
remaining binding at 1 µM (RET(V804L); read-out: %Control @1000nM): 90%
% of control difference from compound Ib at 1 µM (ERBB3; @1000nM): 2.3%
remaining binding at 1 µM (ERBB3; @1000nM, read-out: %Control): 2.3%
remaining binding at 1 µM (ERBB3; read-out: %Control @1000nM): 2.3%
difference in % of control versus compound Ib at 1 µM (FYN; @1000nM): 16.4%
remaining binding at 1 µM (FYN; @1000nM, read-out: %Control): 26%
remaining binding at 1 µM (FYN; read-out: %Control @1000nM): 26%
difference in %Control versus compound Ib at 1 µM ([2]; @1000nM): 30%
remaining binding at 1 µM ([2]; @1000nM, read-out: %Control): 82%
remaining binding at 1 µM ([2]; read-out: %Control @1000nM): 82%
remaining binding at 1 µM (SRMS; @1000nM, read-out: %Control): 27%
remaining binding at 1 µM (SRMS; read-out: %Control @1000nM): 27%
remaining binding at 1 µM (MET; @1000nM, read-out: %Control): 100%
remaining binding at 1 µM (MET; read-out: %Control @1000nM): 100%
difference in %Control versus compound Ib at 1 µM (ITK; @1000nM): 56%
remaining binding at 1 µM (ITK; @1000nM, read-out: %Control): 71%
remaining binding at 1 µM (ITK; read-out: %Control @1000nM): 71%
inhibition at 1 µM (ITK): 29%
remaining binding at 1 µM (KIT-autoinhibited; @1000nM, read-out: %Control): 90%
remaining binding at 1 µM (KIT-autoinhibited; read-out: %Control @1000nM): 90%
difference in %Control from compound Ib at 1 µM (FGFR1; @1000nM): 16%
remaining binding at 1 µM (FGFR1; @1000nM, read-out: %Control): 49%
remaining binding at 1 µM (FGFR1; read-out: %Control @1000nM): 49%
difference in %Control versus compound Ib at 1 µM (INSR; @1000nM): -5%
remaining binding at 1 µM (INSR; @1000nM, read-out: %Control): 95%
remaining binding at 1 µM (INSR; read-out: %Control @1000nM): 95%
remaining binding at 1 µM (TIE1; @1000nM, read-out: %Control): 77%
remaining binding at 1 µM (TIE1; read-out: %Control @1000nM): 77%
difference in %Control versus compound Ib at 1 µM (FER; @1000nM): -10%
remaining binding at 1 µM (FER; @1000nM, read-out: %Control): 90%
remaining binding at 1 µM (FER; read-out: %Control @1000nM): 90%
Compound: COC(=O)c1cnc(S(C)(=O)=O)nc1N1CCCC(n2nc(-c3ccc(Oc4ccccc4)cc3)c3c(N)ncnc32)C1 (centres unmarked) [Compound 8b, Methyl 4-(3-(4-Amino-3-(4-phenoxyphenyl)-1H-pyrazolo[3,4-d]pyrimidin-1-yl)piperidin-1-yl)-2-(methylsulfonyl)pyrimidine-5-carboxylate]
